From ChEMBL document CHEMBL3885881, “DrugMatrix”

Species on record: Rattus norvegicus
Assay: DrugMatrix - Regimen: Daily Repeat
Type: toxicity, organism-based, Sprague-Dawley
Parameters: regimen Daily Repeat, gender Male, age 6-8 weeks
Settings: in vivo, po, route oral GAVAGE, vehicle 100 % WATER; for ABSOLUTE BASOPHIL / ABSOLUTE EOSINOPHIL / ABSOLUTE LYMPHOCYTE / ABSOLUTE MONOCYTE / ABSOLUTE SEGMENTED NEUTROPHIL / BASOPHIL / EOSINOPHIL / ERYTHROCYTE COUNT / HEMATOCRIT / HEMOGLOBIN / LEUKOCYTE COUNT / LYMPHOCYTE / MEAN CORPUSCULAR HEMOGLOBIN / MEAN CORPUSCULAR HEMOGLOBIN CONCENTRATION / MEAN CORPUSCULAR VOLUME / MONOCYTE / NEUTROPHIL / NUCLEATED RED BLOOD CELLS / PLATELET COUNT: tissue Blood; for ALANINE AMINOTRANSFERASE / ALBUMIN / ALKALINE PHOSPHATASE / ASPARTATE AMINOTRANSFERASE / BLOOD UREA NITROGEN / CARBON DIOXIDE / CHLORIDE / CHOLESTEROL / CREATINE PHOSPHOKINASE / CREATININE / GLUCOSE / LIPASE / PHOSPHORUS / POTASSIUM / SODIUM / TOTAL BILIRUBIN / TOTAL PROTEIN / URIC ACID: tissue Plasma
[1] = 0 mg/kg, 72 h, dose level Control, time 3 day
[2] = 0 mg/kg, 120 h, dose level Control, time 5 day
[3] = 10 mg/kg, 72 h, dose level Low, time 3 day
[4] = 10 mg/kg, 120 h, dose level Low, time 5 day

Fc1ccc([C@@H]2CCNC[C@H]2COc2ccc3c(c2)OCO3)cc1 [PAROXETINE]
ABSOLUTE BASOPHIL [1]: 0 CELLS/uL | ABSOLUTE EOSINOPHIL [1]: 32.5 CELLS/uL | ABSOLUTE LYMPHOCYTE [1]: 9305.83 CELLS/uL | ABSOLUTE MONOCYTE [1]: 43.83 CELLS/uL | ABSOLUTE SEGMENTED NEUTROPHIL [1]: 817.83 CELLS/uL | BASOPHIL [1]: 0% | EOSINOPHIL [1]: 0.33% | ERYTHROCYTE COUNT [1]: 5.38 x10E6/uL | HEMATOCRIT [1]: 33.63% | HEMOGLOBIN [1]: 13.17 G/DL | LEUKOCYTE COUNT [1]: 10.2 x10E3/uL | LYMPHOCYTE [1]: 91.17% | MEAN CORPUSCULAR HEMOGLOBIN [1]: 24.5 pg | MEAN CORPUSCULAR HEMOGLOBIN CONCENTRATION [1]: 39.13 G/DL | MEAN CORPUSCULAR VOLUME [1]: 62.53 fL | MONOCYTE [1]: 0.5% | NEUTROPHIL [1]: 8% | NUCLEATED RED BLOOD CELLS [1]: 0.17 /100WBC | PLATELET COUNT [1]: 858 x10E3/uL | ALANINE AMINOTRANSFERASE [1]: 55.67 u/L | ALBUMIN [1]: 4.07 G/DL | ALKALINE PHOSPHATASE [1]: 337 u/L | ASPARTATE AMINOTRANSFERASE [1]: 84 u/L | BLOOD UREA NITROGEN [1]: 13.17 mg/dL | CARBON DIOXIDE [1]: 34.17 mmol/L | CHLORIDE [1]: 99.33 MEQ/L | CHOLESTEROL [1]: 78.83 mg/dL | CREATINE PHOSPHOKINASE [1]: 576.83 u/L | CREATININE [1]: 0.17 mg/dL | GLUCOSE [1]: 152.67 mg/dL | LIPASE [1]: 9.5 u/L | PHOSPHORUS [1]: 10.78 mg/dL | POTASSIUM [1]: 6.34 MEQ/L | SODIUM [1]: 144.12 MEQ/L | TOTAL BILIRUBIN [1]: 0.18 mg/dL | TOTAL PROTEIN [1]: 6.08 G/DL | URIC ACID [1]: 0.65 mg/dL | ABSOLUTE BASOPHIL [2]: 0 CELLS/uL | ABSOLUTE EOSINOPHIL [2]: 31.17 CELLS/uL | ABSOLUTE LYMPHOCYTE [2]: 7918.33 CELLS/uL | ABSOLUTE MONOCYTE [2]: 58.33 CELLS/uL | ABSOLUTE SEGMENTED NEUTROPHIL [2]: 725.5 CELLS/uL | BASOPHIL [2]: 0% | EOSINOPHIL [2]: 0.33% | ERYTHROCYTE COUNT [2]: 5.32 x10E6/uL | HEMATOCRIT [2]: 33.53% | HEMOGLOBIN [2]: 13.17 G/DL | LEUKOCYTE COUNT [2]: 8.73 x10E3/uL | LYMPHOCYTE [2]: 90.33% | MEAN CORPUSCULAR HEMOGLOBIN [2]: 24.82 pg | MEAN CORPUSCULAR HEMOGLOBIN CONCENTRATION [2]: 39.33 G/DL | MEAN CORPUSCULAR VOLUME [2]: 63.12 fL | MONOCYTE [2]: 0.67% | NEUTROPHIL [2]: 8.67% | NUCLEATED RED BLOOD CELLS [2]: 0 /100WBC | PLATELET COUNT [2]: 1144.83 x10E3/uL | ALANINE AMINOTRANSFERASE [2]: 60.5 u/L | ALBUMIN [2]: 3.97 G/DL | ALKALINE PHOSPHATASE [2]: 343.17 u/L | ASPARTATE AMINOTRANSFERASE [2]: 80.83 u/L | BLOOD UREA NITROGEN [2]: 15 mg/dL | CARBON DIOXIDE [2]: 31 mmol/L | CHLORIDE [2]: 99.75 MEQ/L | CHOLESTEROL [2]: 71.5 mg/dL | CREATINE PHOSPHOKINASE [2]: 237.17 u/L | CREATININE [2]: 0.17 mg/dL | GLUCOSE [2]: 137 mg/dL | LIPASE [2]: 11.5 u/L | PHOSPHORUS [2]: 10.13 mg/dL | POTASSIUM [2]: 6 MEQ/L | SODIUM [2]: 145 MEQ/L | TOTAL BILIRUBIN [2]: 0.13 mg/dL | TOTAL PROTEIN [2]: 5.82 G/DL | URIC ACID [2]: 0.62 mg/dL | ABSOLUTE BASOPHIL [3]: 0 CELLS/uL | ABSOLUTE EOSINOPHIL [3]: 33 CELLS/uL | ABSOLUTE LYMPHOCYTE [3]: 7114.67 CELLS/uL | ABSOLUTE MONOCYTE [3]: 0 CELLS/uL | ABSOLUTE SEGMENTED NEUTROPHIL [3]: 519 CELLS/uL | BASOPHIL [3]: 0% | EOSINOPHIL [3]: 0.33% | ERYTHROCYTE COUNT [3]: 5.11 x10E6/uL | HEMATOCRIT [3]: 31.5% | HEMOGLOBIN [3]: 12.33 G/DL | LEUKOCYTE COUNT [3]: 7.67 x10E3/uL | LYMPHOCYTE [3]: 92.67% | MEAN CORPUSCULAR HEMOGLOBIN [3]: 24.2 pg | MEAN CORPUSCULAR HEMOGLOBIN CONCENTRATION [3]: 39.2 G/DL | MEAN CORPUSCULAR VOLUME [3]: 61.7 fL | MONOCYTE [3]: 0% | NEUTROPHIL [3]: 7% | NUCLEATED RED BLOOD CELLS [3]: 0.33 /100WBC | PLATELET COUNT [3]: 979 x10E3/uL | ALANINE AMINOTRANSFERASE [3]: 52.67 u/L | ALBUMIN [3]: 4 G/DL | ALKALINE PHOSPHATASE [3]: 368 u/L | ASPARTATE AMINOTRANSFERASE [3]: 88.67 u/L | BLOOD UREA NITROGEN [3]: 16 mg/dL | CARBON DIOXIDE [3]: 35.33 mmol/L | CHLORIDE [3]: 100.33 MEQ/L | CHOLESTEROL [3]: 67.33 mg/dL | CREATINE PHOSPHOKINASE [3]: 233 u/L | CREATININE [3]: 0.14 mg/dL | GLUCOSE [3]: 119.33 mg/dL | LIPASE [3]: 9.33 u/L | PHOSPHORUS [3]: 10.97 mg/dL | POTASSIUM [3]: 6.17 MEQ/L | SODIUM [3]: 145.03 MEQ/L | TOTAL BILIRUBIN [3]: 0.2 mg/dL | TOTAL PROTEIN [3]: 5.83 G/DL | URIC ACID [3]: 0.77 mg/dL | ABSOLUTE BASOPHIL [4]: 0 CELLS/uL | ABSOLUTE EOSINOPHIL [4]: 0 CELLS/uL | ABSOLUTE LYMPHOCYTE [4]: 6074.67 CELLS/uL | ABSOLUTE MONOCYTE [4]: 188.33 CELLS/uL | ABSOLUTE SEGMENTED NEUTROPHIL [4]: 703.67 CELLS/uL | BASOPHIL [4]: 0% | EOSINOPHIL [4]: 0% | ERYTHROCYTE COUNT [4]: 5.7 x10E6/uL | HEMATOCRIT [4]: 34.77% | HEMOGLOBIN [4]: 13.23 G/DL | LEUKOCYTE COUNT [4]: 6.97 x10E3/uL | LYMPHOCYTE [4]: 86.67% | MEAN CORPUSCULAR HEMOGLOBIN [4]: 23.2 pg | MEAN CORPUSCULAR HEMOGLOBIN CONCENTRATION [4]: 38.07 G/DL | MEAN CORPUSCULAR VOLUME [4]: 61 fL | MONOCYTE [4]: 2.33% | NEUTROPHIL [4]: 11% | NUCLEATED RED BLOOD CELLS [4]: 0 /100WBC | PLATELET COUNT [4]: 1176.67 x10E3/uL | ALANINE AMINOTRANSFERASE [4]: 56.33 u/L | ALBUMIN [4]: 4.17 G/DL | ALKALINE PHOSPHATASE [4]: 432.67 u/L | ASPARTATE AMINOTRANSFERASE [4]: 87.67 u/L | BLOOD UREA NITROGEN [4]: 17 mg/dL | CARBON DIOXIDE [4]: 31.67 mmol/L | CHLORIDE [4]: 99.67 MEQ/L | CHOLESTEROL [4]: 81 mg/dL | CREATINE PHOSPHOKINASE [4]: 254 u/L | CREATININE [4]: 0.19 mg/dL | GLUCOSE [4]: 152.67 mg/dL | LIPASE [4]: 9.67 u/L | PHOSPHORUS [4]: 10.57 mg/dL | POTASSIUM [4]: 6.09 MEQ/L | SODIUM [4]: 145.13 MEQ/L | TOTAL BILIRUBIN [4]: 0.2 mg/dL | TOTAL PROTEIN [4]: 6.03 G/DL | URIC ACID [4]: 0.77 mg/dL
